{"source": "patent US20230277553A1", "about": "“THERAPEUTIC COMPOSITION OF CURE-PRO COMPOUNDS FOR TARGETED DEGRADATION OF BET DOMAIN PROTEINS, AND METHODS OF MAKING AND USAGE” (CORNELL UNIVERSITY, priority 2020, published 2023)", "key": {"SLC19A1": {"test_system": "SLC19A1", "assay": "Suppression of c-MYC downstream target gene SLC19A1, RT-PCR (Cells-to-Ct), HeLa cells", "format": "cell-based, Human", "conditions": "24 h, 10 μM", "description": "The suppression of the expression of the downstream c-MYC target, SLC19A1, was measured by RT-PCR using Power SYBR© Green Cells-to-Ct™ Kit (Life Technologies). Adherent cells were plated on 96 well plates at 5,000 cells per well were treated for 24h with monomer compounds and compounds capable of reversible interactions (1 nM-100 μM). Cells were subsequently washed in ice-cold PBS processed according to the manufacturer's instructions. Quantitative real-time PCR was performed using a ViiA™ 7 Real-time PCR System (Applied Biosystems, Foster City, Calif., USA). GAPDH and ACTB served as internal controls. The primers used were (5′-3′): GAPDH-F: AGCCACATCGCTCAGACAC (SEQ ID NO:9), GAPDH-R: GCCCAATACGACCAAATCC (SEQ ID NO:10), ACTB —F: CCAACCGCGAGAAGATGA (SEQ ID NO: 11), ACTB -R: […] (SEQ ID NO: 12), SLC19A1-F: […] (SEQ ID NO:13), SLC19A1-R: […] (SEQ ID NO: 14).\nHeLa cells (1×104) were treated for 24 hours in 96 well plates with the compounds solubilized in DMSO. Compounds were added at 10 μM each and RNA expression measured by the Cells-to Ct method described above (Thermofisher). CURE-PRO-mediated suppression of the downstream target gene of c-MYC, SLC19A1, after BRD4 degradation was evident in cells treated with the combination of BRD-N25 and 8310 or 8312 (FIG. 66) and BRD-N39 and 8310 and 8312 (FIG. 67) as indicated by a rightward shift in the curve and in increase in the Ct values."}, "MV-4-11 cells": {"test_system": "MV-4-11 cells", "assay": "CellTiter-Glo cell viability, MV-4-11 cells", "format": "cell-based", "conditions": "for Loss of cellular viability / toxicity, cotreated with cereblon ligands 8046, 8047 and 8066 vs monomers alone: MV-4-11, 72 hours, 1:1, 10 nM-100 μM each", "description": "CellTiter-Glo® 2.0 Cell Viability Assay (Promega) was carried out following the manufacturer's recommendations. Cells were seeded at a density of 1000 cells/well in a white 96 well plates (Corning, #3917) in a total volume of 100 μl with respective monomers, combinations of BRD ligands together with E3 ligase ligands or vehicle control treatment. After a 72 h incubation, 100 ul of the CellTiter-Glo® substrate was added per well and luminescence was read on a Spectramax M5 (Molecular Devices). Dose-response curves were generated using Graphpad Prism software.\nMV-4-11 cells (5×104) were treated for 24 hours with the sample compounds solubilized in DMSO. The compounds were added at 1 nM-100 μM each. Cellular viability was determined using the CellTiter-Glo® Luminescent Cell Viability Assay (Promega) described above. FIGS. 19-22 depict the CURE-PRO-mediated loss of cellular viability for BRD monomers (JQ1 derivatives comprising of catechol linkers), and CRBN ligand, 8049 (pomalidomide derivatives comprising boronic acid linkers) combined in a 1:1 ratio.\nMV-4-11 cells (1×104) were treated for 72 hours with the compounds solubilized in DMSO. Compounds were added at 10 nM-100 μM each. Cellular viability was determined using the CellTiter-Glo® Luminescent Cell Viability Assay (Promega) described above. FIGS. 47-54 depict the CURE-PRO-mediated loss of cellular viability for BRD monomers (JQ1 derivatives comprising of boronic acid linkers), and CRBN ligands, 8046, 8047 and 8066 (pomalidomide derivatives comprising diol linkers) combined in a 1:1 ratio."}, "BRD4 [1]": {"target": "T1, BRD4 (Homo sapiens, UniProt O60885)", "assay": "Summary of BRD4 degradation by CURE-PRO pairs, estimated from Western Blot or WES (Proteinsimple)", "format": "cell-based", "parameters": "endogenous in cells", "conditions": "for Degradation of BRD4 in combination with CRBN ligand [drawing 370]: aromatic 1,2-diol- or hindered cis-1,2-diol-containing CRBN ligand, first drawing (8046)", "description": "A black check mark indicates efficacy of 30% to 70% or higher protein degradation."}, "BRD4 [2]": {"target": "T1, BRD4", "assay": "CURE-PRO-mediated BRD4 degradation, Western blot, HeLa cells", "format": "cell-based", "parameters": "endogenous in cells; host or cells: HeLa", "conditions": "for BRD4 degradation, co-treatment with CRBN ligand 8046: 1:1 with 8046, 10 μM each", "summary_of_the_method": "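HeLa cells treated 24 h with compounds in DMSO (1-10 μM, 10 μM or 100 μM each; paired monomers combined 1:1), optional 15-min pretreatment with pomalidomide, VHL298, Nutlin3a (10 μM) or MG-132/carfilzomib (1 μM). RIPA lysates, 10-20 μg protein immunoblotted for BRD4 with β-actin, ECL detection.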"}, "BRD4 [3]": {"target": "T1, BRD4", "assay": "CURE-PRO-mediated BRD4 degradation, WES (ProteinSimple), HeLa cells", "format": "cell-based", "parameters": "endogenous in cells; host or cells: HeLa", "conditions": "24 h, tested 100 nM-10 μM each", "description": "All cell lines were purchased from ATCC or DSMZ and grown at 37° C. with 5% CO2. Human HeLa cells were cultured in complete growth medium (Dulbecco's modified Eagle's medium (DMEM) supplemented with 10% FBS); MCF7 cells were cultured in complete growth medium (Dulbecco's modified Eagle's medium (DMEM) supplemented with 10% FBS and 0.01 mg/ml human recombinant insulin (Sigma Aldrich); Namalwa and MOLM-13 cells were cultured in complete growth medium (RPMI 1640 medium supplemented with 10% FBS); MV-4-11 were cultured in complete growth medium (Iscove's Modified Dulbecco's medium, supplemented with 10% FBS); HCT116 cells were cultured in complete growth medium (McCoy's 5a Medium supplemented with 10% FBS). For cellular degradation of BRD4 studies, cells were seeded in a 12-well plate at 70-80% confluency, allowed to attach overnight, and incubated with the indicated compounds for the indicated time. When indicated, a 15-minute pretreatment with 10 μM pomalidomide, 10 μM VHL298, 10 μM Nutlin3a, 1 μM MG-132 or 1 μM Carfilzomib was performed before the addition of CURE-PROs. For washout studies, after CURE-PRO treatment, media was aspirated and incubated with complete medium for the indicated time before lysis.\nAnti-BRD4 (13440, 1:1,000 dilution for Western Blot and 1:25 dilution for ProteinSimple); Anti-BRD2 (5848 1:1,000 dilution for Western Blot and 1:25 dilution for ProteinSimple); β-Actin (3700, 1:2,000 dilution for Western Blot), β-Actin (4970, 1:50 dilution for ProteinSimple) anti-mouse IgG-HRP, and anti-rabbit IgG-HRP antibodies were purchased Cell Signaling Technology. Anti-GAPDH (600-401-A33, 1:100 dilution for ProteinSimple) was purchased from Rockland Immunochemicals, Inc. Anti-BRD3 (sc-81202, 1:200 dilution for Western Blot) was purchased from Santa Cruz Biotechnology.\nWES Simple analysis was performed on WES system (ProteinSimple-Biotechne) according to the manufacturer's instructions. Total protein concentrations of cell lysates were determined by the Pierce BCA kit (Thermo Fisher). 3 μL of 0.3 μg/μL of the protein lysate was loaded onto a 12- to 230-kDa WES assay plate (ProteinSimple) where 300 nL sample was withdrawn through a capillary, subjected to electrophoretic separation of proteins by size, and followed by the simultaneous, HRP-based detection of proteins using the Anti-Rabbit Detection Module (Proteinsimple: #DM-001). The electropherograms were checked then the automatic peak detection was manually corrected if it was required.\nHeLa cells (2.5×10^6) were treated for 4-24 hours with the compounds solubilized in DMSO. After 4 hours, indicated points were washed and cells were left in full growth media. Compounds were added at 10 μM each. […]"}}, "note": "Entries after “also recorded” stand apart in the source; their conditions may differ.", "data": [{"smiles": "Cc1sc2c(c1C)C(c1ccc(Cl)cc1)=N[C@@H](CC(=O)Nc1ccc(OCCOCCOCCOCCNc3cccc4c3C(=O)N(C3CCC(=O)NC3=O)C4=O)cc1)c1nnc(C)n1-2", "note": "(stereo partly shown) [ARV-825, reference compound]", "values": [{"measurement": "Suppression of SLC19A1 expression, single compound", "setting": "SLC19A1", "value": "Complete suppression of SLC19A1 was evident; also recorded: completely suppressed"}]}, {"smiles": "COc1ccc2c(c1)C(c1ccc(Cl)cc1)=N[C@@H](CC(=O)NCCOCCOCCNC(=O)c1cccc(B(O)O)c1)c1nnc(C)n1-2", "note": "[BRD-E46]", "values": [{"measurement": "Loss of cellular viability / toxicity, cotreated with cereblon ligands 8046, 8047 and 8066 vs monomers alone", "setting": "MV-4-11 cells", "value": "reduced viability; also recorded: increased toxicity"}, {"measurement": "Degradation of BRD4 in combination with CRBN ligand [drawing 372]", "setting": "BRD4 [1]; Table 1, CRBN ligand, third drawing (8066)", "value": "✓ (A black check mark indicates efficacy of 30% to 70% or higher protein degradation)"}, {"measurement": "Degradation of BRD4 in combination with CRBN ligand [drawing 370]", "setting": "BRD4 [1]; Table 1", "value": "✓ (A black check mark indicates efficacy of 30% to 70% or higher protein degradation)"}, {"measurement": "BRD4 degradation, co-treatment with CRBN ligand 8046", "setting": "BRD4 [2]; 24 h, Western blot", "value": "causes degradation of BRD4; also recorded: Degradation is noted"}, {"measurement": "BRD4 degradation, co-treatment with CRBN ligand 8066", "setting": "BRD4 [2]; 24 h, 1:1 with 8066, 10 μM each (BRD-E10: 10 and 100 μM), Western blot", "value": "causes degradation of BRD4; also recorded: Degradation is noted"}]}, {"smiles": "CCNC(=O)C[C@@H]1N=C(c2ccc(Sc3ccccc3)cc2)c2cc(OC)ccc2-n2c(C)nnc21", "note": "[BRD-E52C, N-ethyl-2-((4S)-8-methoxy-1-methyl-6-(4-(phenylthio)phenyl)-4H-benzo[f][1,2,4]triazolo[4,3-a][1,4]diazepin-4-yl)acetamide]", "values": [{"measurement": "Concentration at which BRD4 degradation is induced, with 8047 (WES)", "setting": "BRD4 [3]", "value": "> 10", "unit": "µM"}]}, {"smiles": "CCNC(=O)C[C@@H]1N=C(c2ccc(Cl)cc2)c2cc(Sc3cccc(B(O)O)c3)ccc2-n2c(C)nnc21", "note": "[BRD-E76]", "values": [{"measurement": "Loss of cellular viability / toxicity, cotreated with cereblon ligands 8046, 8047 and 8066 vs monomers alone", "setting": "MV-4-11 cells", "value": "reduced viability; also recorded: increased toxicity"}, {"measurement": "Degradation of BRD4 in combination with CRBN ligand [drawing 370]", "setting": "BRD4 [1]; Table 1", "value": "✓ (A black check mark indicates efficacy of 30% to 70% or higher protein degradation)"}, {"measurement": "BRD4 degradation, co-treatment with CRBN ligand 8046", "setting": "BRD4 [2]; 24 h, Western blot", "value": "causes degradation of BRD4"}, {"measurement": "BRD4 degradation, co-treatment with CRBN ligand 8047", "setting": "BRD4 [2]; 24 h, 1:1 with 8047, 10 μM each, Western blot", "value": "causes degradation of BRD4"}]}, {"smiles": "COc1ccc2c(c1)C(c1ccc(Cl)cc1)=N[C@@H](CC(=O)NCCc1ccc(O)c(O)c1)c1nnc(C)n1-2", "note": "[BRD-N10, (S)-2-(6-(4-chlorophenyl)-8-methoxy-1-methyl-4H-benzo[f][1,2,4]triazolo[4,3-a][1,4]diazepin-4-yl)-N-(3,4-dihydroxyphenethyl)acetamide]", "values": [{"measurement": "Loss of cellular viability / toxicity, co-dosed with CRBN ligand 8049", "setting": "MV-4-11 cells; MV-4-11, 24 hours, 1:1 with 8049, 1 nM-100 μM each", "value": "concentration-dependent loss in cellular viability; also recorded: increased toxicity"}, {"measurement": "Degradation of BRD4 in combination with CRBN ligand [drawing 407]", "setting": "BRD4 [1]; Table 4, aryl-boronic acid-containing CRBN ligand, first drawing (by text: 8048)", "value": "✓ (A black check mark indicates efficacy of 30% to 70% or higher protein degradation)"}, {"measurement": "Degradation of BRD4 in combination with CRBN ligand [drawing 408]", "setting": "BRD4 [1]; Table 4, aryl-boronic acid-containing CRBN ligand, second drawing (by text: 8049)", "value": "✓ (A black check mark indicates efficacy of 30% to 70% or higher protein degradation)"}, {"measurement": "Degradation of BRD4 in combination with MDM2 ligand [drawing 423]", "setting": "BRD4 [1]; Table 5, aryl-boronic acid-containing MDM2 ligand, first drawing (8310)", "value": "✓ (A black check mark indicates efficacy of 30% to 70% or higher protein degradation)"}, {"measurement": "BRD4 degradation, co-treatment with CRBN ligand 8048", "setting": "BRD4 [2]; 24 h, 1:1 with 8048, 1-10 μM each, Western blot", "value": "causes degradation of BRD4; also recorded: capable of degrading BRD4"}, {"measurement": "BRD4 degradation, BRD ligand alone", "setting": "BRD4 [2]; 24 h, BRD monomer alone, Western blot", "value": "no degradation of BRD4"}]}, {"smiles": "Nc1cccc2c1C(=O)N(C1CCC(=O)NC1=O)C2=O", "note": "(stereo not shown) [pomalidomide, reference compound]", "values": [{"measurement": "Suppression of SLC19A1 expression, single compound", "setting": "SLC19A1", "value": "no suppression"}, {"measurement": "Inhibition of CURE-PRO-mediated BRD4 degradation (BRD-E52 or BRD-E72 with 8047) by preincubation", "setting": "BRD4 [2]; 15 min preincubation, equimolar (10 μM)", "value": "competitively inhibited; also recorded: inhibition of CURE-PRO-mediated BRD4 degradation"}]}]}
